≈ marks a conversion by molar mass, not a printed value. Where “and” joins values, the source holds several entries; their conditions need not be identical. Equal entries are not always repeated. Entries after “also recorded” stand apart in the source; their conditions may differ. Where two headings read alike, the source gives them in different places.
Columns and labels:
Assay type in all cases: in vivo, human
[1] = system: patients with PSE; experiment: PK-PD relationship, Emax model for SPR; details: for EC50: Homo sapiens, read-out: mean (SD) EC50; for EC50 / mean (SD) Emax on the logit scale: mean across the 13 patients; for EC50 (C-7 concentration at 50% of the maximum reduction in SPR) / Emax (maximum reduction in SPR on the logit scale): estimate for each patient (15, 50 or 100 mg)
Procedure: The mean SPR per eye condition and plasma PK concentrations of C-7 50, 100, and 15 mg dose groups is shown in FIG. 3, FIG. 4 and FIG. 5, respectively.
A PK-PD model was developed sequentially for the SPR data. Firstly a pharmacokinetic model was fitted using nonlinear mixed effects methodology in NONMEM version VI to describe the 13 patients with both PK and PD data. A 3 compartment disposition model with first order absorption and absorption lag time was selected to describe the pharmacokinetic time profile for each patient. The between patient variability was described by exponential random effects on each pharmacokinetic parameter, with all parameters assumed to be independent between individuals. The residual error model combined the additive and proportional error terms. The estimated pharmacokinetic parameters for each patient were used to generate each patient's PK profile as an input to the pharmacodynamic model.
For the Pharmacodynamic response, SPR, an Emax model was fitted on the logit transformed scale:
where Base is the baseline SPR on the logit scale, Emax is the maximum reduction in SPR on the logit scale, EC50 is the concentration at which the 50% of the maximum reduction is obtained and C is C-7 concentration. For each patient, the PD parameters for the three eye conditions, eyes closure, eyes closed and eyes open, were estimated separately but with a common additive residual variance on the logit scale. The PD parameter estimates were highly variable across the 13 patients, with the estimation having trouble identifying Emax and EC50 (see Table 6 below).

[2] = C-7 plasma pharmacokinetics after single oral administration
Procedure: The C-7 PK parameters were determined in plasma using non-compartmental methods using WinNonlin Pro (Version 5.2), as detailed in Table 3.
Biofluid concentrations were expressed in mass per volume units (ng/mL). All C-7 and AEDs concentrations below LLOQ were reported as zero in the concentration data listings. Concentrations below LLOQ were treated as zero in summary statistics of concentration data as well as for calculation of C-7 PK parameters. A geometric mean was not reported whenever at least one concentration was below the LLOQ (i.e. zero). Missing data were labeled as such and no imputation methods were used.
Terminal elimination rate constant (lambda_z) was calculated as the slope of the linear regression of the terminal phase of the logarithmic concentration-time profile for each individual dataset available. A minimum of three time points was used for determining lambda_z. Regression was performed without weighting, and a minimum value of 0.75 for Rsq_adjusted was necessary for acceptance.
The different areas under the concentration-time curve were calculated using the linear trapezoidal summation (both ascending and descending phase).
Descriptive statistics of pharmacokinetic parameters included mean, SD, and CV, minimum and maximum. The geometric mean was identified when presented. A range of values were presented for selected variables. Since Tmax is generally evaluated by a nonparametric method, median values and ranges were provided.
The patients received the study medication in the morning between 8:00 h and 9:00 h, at least 30 minutes after a light breakfast had been completed.

[3] = PK of concomitant AEDs on co-administration of C-7; details: C-7 on Day 2; AED PK profiles Day 1 vs Days 2 and 3
Procedure: Similar AEDs concentration-time profiles were observed on Days 1, 2 and 3 for each patient. Two of the patients in Cohort I were also enrolled in Cohort II. Their lamotrigine PK profiles were similar in the 2 treatment periods. These observations confirm stable pre-existing treatment for all the patients.
AED concentrations were listed and summarized; analysis of level of exposure of AED(s) taken by the patient was performed on an ad-hoc basis as it depended on specifics of the AED.

[4] = Cohort I, C-7 50 mg, individual patients
[5] = Cohort II, C-7 100 mg, individual patients
[6] = Cohort III, C-7 15 mg, individual patients
[7] = patients with PSE (after light breakfast) vs healthy volunteer study (fasted)

EC50 ([1]; eyes closed): 3.75 µg/mL (≈ 9.93 µM)
EC50 ([1]; eyes closures): 2.25 µg/mL (≈ 5.97 µM)
EC50 ([1]; eyes open): 2.96 µg/mL (≈ 7.85 µM)
AUC0-24 h [2, 5]: 17924 ng·h/mL and 13877 ng·h/mL
Cmax [2, 5]: 3470 ng/mL and 2950 ng/mL
Tmax [2, 5]: 2.88 h and 2.00 h
AUC0-24 h [2, 6]: 2906 ng·h/mL and 3878 ng·h/mL
Cmax [2, 6]: 634 ng/mL and 701 ng/mL
Tmax [2, 6]: 4.00 h and 1.97 h
AUC(0-t) ([2]; human, plasma, oral, 15 mg, Cohort III, C-7 15 mg, individual patients, read-out: AUC0-24 h): 4270 ng·h/mL
Cmax ([2]; human, plasma, oral, 15 mg, Cohort III, C-7 15 mg, individual patients, read-out: Cmax): 581 ng/mL
Cmax ([2]; human, plasma, oral, 50 mg, Cohort I, C-7 50 mg, individual patients, read-out: Cmax): 1530 ng/mL
Tmax ([2]; human, plasma, oral, 50 mg, Cohort I, C-7 50 mg, individual patients, read-out: Tmax): 3 h
AUC(0-t) ([2]; human, plasma, oral, 100 mg, Cohort II, C-7 100 mg, individual patients, read-out: AUC0-24 h): 21300 ng·h/mL
Cmax ([2]; human, plasma, oral, 100 mg, Cohort II, C-7 100 mg, individual patients, read-out: Cmax): 3700 ng/mL
Tmax ([2]; human, plasma, oral, 100 mg, Cohort II, C-7 100 mg, individual patients, read-out: Tmax): 3 h
AUC(0-t) ([2]; human, plasma, po, 15 mg, plasma, single oral 15 mg, Cohort III, n = 3, geometric mean [% CV geo mean], read-out: AUC0-6 hr): 2130 ng·h/mL
AUC(0-t) ([2]; human, plasma, po, 15 mg, plasma, single oral 15 mg, Cohort III, n = 3, geometric mean [% CV geo mean], read-out: AUC0-24 hr): 3640 ng·h/mL
AUC(0-t) ([2]; human, plasma, po, 15 mg, plasma, single oral 15 mg, Cohort III, n = 3, geometric mean [% CV geo mean], read-out: AUClast): 3660 ng·h/mL
Cmax ([2]; human, plasma, po, 15 mg, plasma, single oral 15 mg, Cohort III, n = 3, geometric mean [% CV geo mean], read-out: Cmax): 637 ng/mL
Tmax ([2]; human, plasma, po, 15 mg, plasma, single oral 15 mg, Cohort III, n = 3, median (min-max), read-out: Tmax): 2.98 h
AUC(0-t) ([2]; human, plasma, po, 50 mg, plasma, single oral 50 mg, Cohort I, n = 6, geometric mean [% CV geo mean], read-out: AUC0-6 hr): 6790 ng·h/mL
AUC(0-t) ([2]; human, plasma, po, 50 mg, plasma, single oral 50 mg, Cohort I, n = 6, geometric mean [% CV geo mean], read-out: AUC0-24 hr): 10600 ng·h/mL
AUC(0-t) ([2]; human, plasma, po, 50 mg, plasma, single oral 50 mg, Cohort I, n = 6, geometric mean [% CV geo mean], read-out: AUClast): 10700 ng·h/mL
Cmax ([2]; human, plasma, po, 50 mg, plasma, single oral 50 mg, Cohort I, n = 6, geometric mean [% CV geo mean], read-out: Cmax): 1990 ng/mL
Tmax ([2]; human, plasma, po, 50 mg, plasma, single oral 50 mg, Cohort I, n = 6, median (min-max), read-out: Tmax): 2.96 h
AUC(0-t) ([2]; human, plasma, po, 100 mg, plasma, single oral 100 mg, Cohort II, n = 4, geometric mean [% CV geo mean], read-out: AUC0-6 hr): 10200 ng·h/mL
AUC(0-t) ([2]; human, plasma, po, 100 mg, plasma, single oral 100 mg, Cohort II, n = 4, geometric mean [% CV geo mean], read-out: AUC0-24 hr): 16900 ng·h/mL
AUC(0-t) ([2]; human, plasma, po, 100 mg, plasma, single oral 100 mg, Cohort II, n = 4, geometric mean [% CV geo mean], read-out: AUClast): 17000 ng·h/mL
Cmax ([2]; human, plasma, po, 100 mg, plasma, single oral 100 mg, Cohort II, n = 4, geometric mean [% CV geo mean], read-out: Cmax): 2980 ng/mL
Tmax ([2]; human, plasma, po, 100 mg, plasma, single oral 100 mg, Cohort II, n = 4, median (min-max), read-out: Tmax): 2.94 h
mean AUClast in patients higher than in healthy male subjects [2, 7]: 10-40%
mean Cmax in patients higher than in healthy male subjects [2, 7]: 10-20%
Tlag ([2]; plasma, single oral 15 mg, Cohort III, n = 3, median (min-max)): 0.00 (0.00-0.00) hr
Tlag ([2]; plasma, single oral 50 mg, Cohort I, n = 6, median (min-max)): 0.00 (0.00-0.00) hr
Tlag ([2]; plasma, single oral 100 mg, Cohort II, n = 4, median (min-max)): 0.00 (0.00-0.00) hr
earliest time C-7 measurable in plasma ([2]; single 15, 50 or 100 mg dose): 0.25 h post-dose
time of peak plasma concentration (median) ([2]; single 15, 50 or 100 mg dose): around 3 h post-dose
time of peak plasma concentration, maximum in individual patients ([2]; single 15, 50 or 100 mg dose): 4 h
time of peak plasma concentration, minimum in individual patients ([2]; single 15, 50 or 100 mg dose): approximately 2 h
Structure (SMILES): CC(C)c1cc2[nH]c(=O)n(NS(C)(=O)=O)c(=O)c2cc1-c1ccnn1C [Compound C-7, N-[7-Isopropyl-6-(2-methyl-2H-pyrazol-3-yl)-2,4-dioxo-1,4-dihydro-2H-quinazolin-3-yl]-methanesulfonamide]
EC50 (C-7 concentration at 50% of the maximum reduction in SPR) ([1]; eyes closed): 0.219 µg/mL and 0.005 µg/mL and 1.17 µg/mL and 0.31 µg/mL and 2.04 µg/mL and 0.229 µg/mL and 9.9 µg/mL and 2.08 µg/mL and 9.2 µg/mL
Emax (maximum reduction in SPR on the logit scale) ([1]; eyes closed): 0.963 and 2.54 and 1.79 and 2.47 and 6.99 and 0.58 and 0.05 and 30.9 and 49.5 (3×) and 0.487
mean (SD) Emax on the logit scale ([1]; eyes closed): 16.3 (21.7)
EC50 (C-7 concentration at 50% of the maximum reduction in SPR) ([1]; eyes closure): 1.69 µg/mL and 9.9 µg/mL and 0.32 µg/mL and 0.788 µg/mL and 1.27 µg/mL and 0.005 µg/mL and 0.01 µg/mL and 0.814 µg/mL and 1.41 µg/mL and 3.08 µg/mL and 0.0833 µg/mL
Emax (maximum reduction in SPR on the logit scale) ([1]; eyes closure): 2.38 and 41.5 and 0.571 and 49.5 (2×) and 3.25 and 2.39 and 0.05 (2×) and 9.23 and 1.31 and 7.67 and 0.495
mean (SD) Emax on the logit scale ([1]; eyes closures): 12.9 (19.6)
EC50 (C-7 concentration at 50% of the maximum reduction in SPR) ([1]; eyes open): 1.47 µg/mL and 9.9 µg/mL and 0.629 µg/mL and 0.131 µg/mL and 0.005 µg/mL and 0.137 µg/mL and 1.61 µg/mL and 1.88 µg/mL
Emax (maximum reduction in SPR on the logit scale) ([1]; eyes open): 1.14 and 40.8 and 1.03 and 49.5 (4×) and 14.5 and 1.29 and 0.05 (2×) and 2.66
mean (SD) Emax on the logit scale ([1]; eyes open): 21.6 (23.5)
AUC0-24 h [2, 4]: 9838 ng·h/mL and 12564 ng·h/mL and 14162 ng·h/mL and 7043 ng·h/mL
Cmax [2, 4]: 1910 ng/mL and 2140 ng/mL and 2800 ng/mL and 1410 ng/mL
Tmax [2, 4]: 2.00 h and 2.92 h and 3.98 h and 3.87 h
effect of co-administration of C-7 on the AED PK [3]: did not seem to affect the AED PK; also recorded: did not seem to affect the PK of selected AEDs; also recorded: did not appear to affect the AED PK

Reference: US20140163050A1, “Use of 1H-quinazoline-2,4-diones” (priority 2011, published 2014)
